A melting point compilation (Tetko et al.)

SMILES | melting point [°C]
CCc1ccccc1-n1c(S)nc2ccccc2c1=O | 304 to 306
N#CCc1nc(N)nc(N)n1 | 280 to 282
O=C(O)C(Br)C12CC3CC(CC(C3)C1)C2 (stereo not drawn) | 162 to 166
Nc1cncnc1N1CCCC1 | 156 to 158
N#Cc1cc(Br)ccc1S(=O)(=O)Cl | 94 to 96
CCOC(=O)c1c(C)[nH]c(C=O)c1C | 162 to 164
CS(=O)(=O)CCS(=O)(=O)Cl | 119 to 121
Brc1ccc(SC2CCOCC2)nc1 | 60 to 62
COc1ccc(C(N)CN2CCN(C)CC2)cc1 (stereo not drawn) | 82 to 84
CCc1cccc(CC)c1NC(=O)C(C)Cl (stereo not drawn) | 166 to 168
Cc1nc(CCl)nc2ccccc12 | 60 to 62
ClCc1ccnc(-c2ccc(Br)cc2)n1 | 126 to 128
OC1CCc2cn[nH]c2C1 (stereo not drawn) | 154 to 156
Cc1nc(C(=O)O)c2n1CCCC2 | 225 to 227
CC(C)(C#N)Nc1ccccc1 | 89 to 91
NC(=S)CCN1CCCCC1 | 104 to 106
O=C(c1ccc(Br)o1)N1CCNCC1 | 118 to 120
NS(=O)(=O)N1CCCNCC1 | 118 to 120
CN(C)Cc1nnc(S)o1 | 202 to 204
CCOC(OCC)c1nnc[nH]1 | 59 to 61
CC(=O)N(C)c1ccc(S(=O)(=O)Cl)cc1 | 133 to 135
COc1cc(C#N)c2ccccc2n1 | 133 to 135
NC(=O)C1CCCO1 (stereo not drawn) | 76 to 78
Cc1nc(-c2ccc(S(N)(=O)=O)cc2)co1 | 245 to 247
CCOc1ccc(S(=O)(=O)N2CCOCC2)cc1N | 165 to 167

SMILES | melting point [°C]
CC(=O)NCCNC(=O)CCC(=O)O | 166 to 168
O=C(O)CC(NC(=O)c1ccccc1)c1ccccc1 (stereo not drawn) | 197 to 199
O=C1CN(C(c2ccccc2)c2ccccc2)C1 | 78 to 80
Clc1nc(CN2CCCCC2)nc2scc(-c3ccccc3)c12 | 79 to 81
Cc1ccc(Oc2ccc(N)cn2)cc1 | 90 to 92
Cc1ccc(-c2csc(N)n2)s1 | 129 to 131
O=C(CN1CCCC(C(=O)O)C1)Nc1ccccc1 (stereo not drawn) | 100 to 102
Cc1cc(Br)cn2c(C=O)cnc12 | 152 to 154
CC(Cc1ccc(Cl)cc1)NC(=O)OC(C)(C)C (stereo not drawn) | 93 to 95
COc1cc(N)ccc1S(=O)(=O)Nc1ccc(Cl)cc1Cl | 199 to 201
O=C(Cc1ccccn1)c1ccc(Cl)cc1 | 99 to 101
Cc1nc(COc2ccc(C=O)cc2)no1 | 57 to 59
CCc1ccc(C(N)=S)cc1 | 47 to 51
Clc1ccc2nccn2n1 | 114 to 116
c1cncc(NCc2ccsc2)c1 | 62 to 64
CC(C)(C)NCCC(N)=O | 95 to 97
N#CC(C(=O)c1ccccc1)c1ccccc1 (stereo not drawn) | 97 to 99
CC(C)c1cccc(S(N)(=O)=O)c1 | 74 to 76
NNS(=O)(=O)Cc1ccc([N+](=O)[O-])cc1 | 139 to 141
Nc1ncc2c(n1)CCN(Cc1ccccc1)C2 | 179 to 181
CCn1c(C)cs/c1=N\c1ccc(Cl)cc1 | 190 to 192
CSC=CC(=O)O | 118 to 120
CC(C)CN1C(=O)CC(=O)NC1=O | 144 to 146
Cc1ccc(Nc2nnc(S)s2)cc1Cl | 210 to 212
CC(C)(C)OC(=O)N1CCN(CC(=O)O)C(=O)C1 | 149 to 151

SMILES | melting point [°C]
Nc1ccn(-c2nccs2)n1 | 99 to 101
COc1ccccc1NS(=O)(=O)c1ccc2oc(S)nc2c1 | 109 to 113
Nc1ccc(N2C(=O)c3ccccc3C2=O)c(Cl)c1 | 204 to 206
O=C1NC(=O)C2(CCCc3ccccc32)N1 (stereo not drawn) | 203 to 205
NCc1ccc(N2CCN(c3ccccn3)CC2)nc1 | 107 to 109
NC(=S)CN1C(=O)CCC1=O | 156 to 158
c1n[nH]cc1C1CCCNC1 (stereo not drawn) | 71 to 73
COCCc1ccc(S(=O)(=O)Cl)cc1 | 40 to 42
BrCc1cc(Br)c2c(c1)OCO2 | 123 to 125
O=C(O)CCCCCNC(=O)NC1CCCCC1 | 138 to 140
Cc1cc(C)n2c(C=O)cnc2n1 | 169 to 171
CC(=O)c1ccc(S(=O)(=O)NCc2ccco2)cc1 | 107 to 109
CC(=O)NC12CC3CC(C1)CC(C(=O)O)(C3)C2 | 258 to 260
CC(C)C(Br)C(=O)NC1CCCCCC1 (stereo not drawn) | 119 to 121
CCOc1cc(C=O)cc(Br)c1OC | 52 to 54
O=[N+]([O-])c1cc2c(cc1S(=O)(=O)Cl)OCCCO2 | 125 to 127
CCC(CC)C(=O)N1CCC(=NO)CC1 | 101 to 103
CC(C)CCS(=O)(=O)CC(=O)O | 61 to 63
CC(C)c1nn(-c2ccc(Br)cc2)cc1C=O | 99 to 101
Clc1ccc(-c2noc(Cl)n2)cc1 | 59 to 61
CC(C)(C)OC(=O)N1CCN(C(N)=O)CC1 | 175 to 177
CCCCCCn1cc(S(=O)(=O)Cl)c(=O)[nH]c1=O | 157 to 159
O=Cc1ccc(N2CCNC(=O)C2)cc1 | 192 to 194

Further lines, results first:

melting point [°C] | SMILES
67 to 69 | O=C(O)C1(c2cccc(F)c2)CCC1
142 to 146 | CCOCc1cc(C(=O)O)ccc1OC
204 to 206 | NC(=O)c1cnc(Cl)c(Cl)c1
107 to 109 | CCC(CO)NC(=O)Cc1ccc(N)cc1 (stereo not drawn)
46 to 48 | COc1ccc(CCCC(=O)O)c(OC)c1
207 to 209 | Cc1cc(C)c2nc(C3CC3)cc(C(=O)O)c2c1
125 to 127 | Nc1ccc(-c2csnn2)cc1
77 to 79 | CCOc1ccc(N)cc1CO
79 to 81 | Cc1cc(N2CCSCC2)ccc1N
38 to 40 | CCOc1cc(C=O)ccc1OCC(F)(F)F
129 to 131 | O=C(O)C1Cc2cc(F)ccc2O1 (stereo not drawn)
139 to 141 | CS(=O)(=O)NCc1ccc(C(=O)O)o1
105 to 107 | O=C(Nc1ccccc1I)C(F)(F)F
157 to 159 | Nc1nc(CC(=O)c2ccccc2)cs1
141 to 143 | CCc1ccc(C(=O)O)cc1C#N
102 to 104 | CC(=O)c1ccc(S(=O)(=O)CC(F)(F)F)cc1
49 to 51 | CCOC(=O)c1cc(Br)cc(Cl)c1N
306 to 308 | Cc1cc(=O)[nH]cc1C(=O)O
139 to 141 | COc1ccccc1N1CC(C(=O)O)CC1=O (stereo not drawn)
65 to 67 | Nc1ccc(-c2cccc(C(F)(F)F)c2)cc1
146 to 148 | CNCCCc1cc(-c2ccc(F)cc2)no1
117 to 121 | O=C(O)c1ccccc1OCc1cscn1
77 to 79 | COCCNc1ccc(C(F)(F)F)cn1
193 to 195 | O=C(O)c1ccc(-c2ccc(F)cc2)o1

melting point [°C] | SMILES
149 to 151 | O=C(O)c1ccc(COCC(F)(F)F)cc1
109 to 111 | COc1ccc(C2CC2C(=O)O)cc1 (stereo not drawn)
244 to 246 | COc1ccc(C)cc1-n1cc(C(=O)O)ccc1=O
135 to 137 | Cc1cscc1C(=O)O
157 to 159 | O=C(O)CNS(=O)(=O)c1cc(C(F)(F)F)ccc1Cl
185 to 187 | Cc1ccc(C(=O)O)cc1S(=O)(=O)NC1CCCC1
114 to 116 | O=C(O)CCS(=O)c1ccc2c(c1)OCCCO2 (stereo not drawn)
211 to 213 | Cc1c(C(=O)O)cccc1-c1ccccn1
193 to 195 | Fc1ccc(Br)c(-c2nn[nH]n2)c1
256 to 258 | O=C1COc2cc(S)c(Cl)cc2N1
175 to 177 | CC(C)Cn1ncc2cc(C(=O)O)cnc21
144 to 146 | Nc1ccc(S(=O)(=O)Nc2ccc(Cl)c(C(F)(F)F)c2)cc1
264 to 266 | O=C(O)c1cccn2cc(CN3CCCC3)nc12
43 to 45 | O=C(O)c1cc(NS(=O)(=O)c2cc([N+](=O)[O-])ccc2Cl)ccc1O
119 to 121 | NCC(Cc1ccc(F)cc1)C(N)=O (stereo not drawn)
230 to 232 | CC1Sc2ccc(C(=O)O)cc2NC1=O (stereo not drawn)
144 to 146 | CC(CC(=O)O)NS(=O)(=O)c1cccnc1Cl (stereo not drawn)
62 to 64 | CCCCN1Cc2ccc(N)cc2C1
71 to 73 | O=C(O)C1(Cc2ccc(Cl)cc2)CCCC1
173 to 178 | O=C(O)C1CCN(S(=O)(=O)c2ccc3c(c2)OCCCO3)CC1
198 to 200 | Cc1ccc(-n2nc(C(=O)O)c3c2CCC3)c(C)c1
242 to 244 | CN(C)S(=O)(=O)c1cncc(C=CC(=O)O)c1
118 to 120 | Cc1cccc2nc(C(F)(F)F)[nH]c(=O)c12
39 to 41 | N#CCNc1cccc(F)c1

melting point [°C] | SMILES
240 to 242 | O=C(O)c1c[nH]c(-c2ccccc2)n1
225 to 227 | COc1ccc(C(=O)Nc2cc(F)ccc2C(=O)O)cc1
214 to 216 | Cn1ccc(C(=O)NCCC(=O)O)cc1=O
172 to 174 | O=C(O)c1cc(-c2ccccc2)c(N2CCOCC2)s1
117 to 119 | CCOC(=O)c1csc(Nc2ccc(OC)cc2)n1
128 to 132 | NC(=O)NCc1cccs1
189 to 191 | O=C(O)c1c(O)cc(Cl)cc1Cl
183 to 185 | NC(CC1C(=O)Nc2ccccc21)=NO (stereo not drawn)
192 to 194 | NS(=O)(=O)c1ccc(C(=O)NCC(=O)O)cc1
87 to 91 | COc1ccc(F)cc1C(=O)O
87 to 89 | OCc1nc(-c2ccccc2)cs1
109 to 111 | CS(=O)(=O)c1ccc(Br)cc1N
189 to 191 | Cc1cnn(-c2ccc(S(N)(=O)=O)cc2F)c1
117 to 121 | COC(=O)c1cc(Cl)c(O)c(Cl)c1
104 to 106 | Nc1cc(-c2cc(F)cc(Br)c2)[nH]n1
133 to 135 | CC(=CC(=O)O)c1ccccc1C(F)(F)F
171 to 173 | O=C(O)CCc1nc2cc(C(F)(F)F)ccc2n(Cc2ccccc2)c1=O
121 to 123 | NC(C(=O)O)(c1cc(F)cc(F)c1)C(F)(F)F (stereo not drawn)
109 to 111 | COc1ccc(-c2nc(CC(=O)O)cs2)cc1
159 to 161 | O=C(NC(CO)C(=O)O)c1ccccc1 (stereo not drawn)
121 to 123 | Cc1cc2c(n1-c1cccc(C(F)(F)F)c1)CCCC2=O
102 to 104 | Cc1cc(N)n(-c2ccccc2C(F)(F)F)n1
